“Also recorded” adds a separate entry of the source.
What was measured:
[1] = test system: tyrosinase (TYR) activity in B16-F10 cells; experiment: Cellular TYR activity assay (lysates of treated cells); assay type: cell-based, murine; conditions: 100 nM α-MSH, 24 h, cell lysates
Method: After B16-F10 cells were treated with drug and/or α-MSH, the TYR activity of cell extracts was determined by an indirect spectrophotometric method to monitor dopachrome formation with L-tyrosine plus L-DOPA as the substrates. Total cellular protein was extracted from the treated cells using a lysis buffer of 10 mM Tris-HCl buffer (pH 7.4) containing 120 mM NaCl, 25 mM KCl, 2.0 mM EDTA, 1.0 mM EGTA, 0.5% Triton X-100, and a protease inhibitor cocktail (Roche, Mannheim, Germany) at 4 °C, followed by centrifugation at 13,000× g for 15 min. The TYR activity assay mixture (200 μL) consisting of 100 mM sodium phosphate buffer (pH 6.8), 1.0 mM L-tyrosine, and 42 μΜ L-DOPA was incubated with 40 μg cellular protein extract at 37 °C, and changes in absorbance at 475 nm over time were measured using a Spectrostar Nano microplate reader.

[2] = test system: TYR, TYRP1, DCT and MITF mRNA in B16-F10 cells; experiment: qRT-PCR analysis of melanogenic gene mRNA; assay type: cell-based, murine; conditions: 100 nM α-MSH, 12 h, normalized to GAPDH
Method: After B16-F10 cells were treated with drug and/or α-MSH, cellular RNA was extracted using an RNeasy kit (Qiagen, Valencia, CA, USA) and the complementary DNA (cDNA) was synthesized by reverse transcription using a High-Capacity cDNA Archive Kit (Applied Biosystems, Foster City, CA, USA). qRT-PCR was conducted using a StepOnePlus™ Real-Time PCR System (Applied Biosystems). The reaction mixture (20 μL) comprised SYBR® Green PCR Master Mix (Applied Biosystems), 60 ng cDNA, and 2 pmol gene-specific primer sets (Macrogen, Seoul, Korea).
The reaction protocol was as follows: initial incubation at 50 °C for 2 min; DNA polymerase activation at 95 °C for 15 min; and annealing and extension at 60 °C for 1 min. In each PCR run, the melting curve was checked to confirm the homogeneity of the PCR product. The mRNA expression levels of the gene of interest were determined using the comparative Ct method, and normalized to the internal reference GAPDH [59]. In this method, Ct is defined as the number of PCR cycles required for the signal to exceed the threshold. Fold changes in the test group compared to the control group were calculated as 2^−ΔΔCt, where ΔΔCt = ΔCt(test) − ΔCt(control) = [Ct(gene, test) − Ct(reference, test)] − [Ct(gene, control) − Ct(reference, control)].

human TYR = target: T1, human TYR (Homo sapiens, UniProt P14679); experiment: In vitro TYR catalytic activity assay, lysate of HEK293-TYR cells; assay type: biochemical
T1 construct: expressed in transfected cells; Triton X-100 lysate supernatant
T1 sequence (P14679 19-529): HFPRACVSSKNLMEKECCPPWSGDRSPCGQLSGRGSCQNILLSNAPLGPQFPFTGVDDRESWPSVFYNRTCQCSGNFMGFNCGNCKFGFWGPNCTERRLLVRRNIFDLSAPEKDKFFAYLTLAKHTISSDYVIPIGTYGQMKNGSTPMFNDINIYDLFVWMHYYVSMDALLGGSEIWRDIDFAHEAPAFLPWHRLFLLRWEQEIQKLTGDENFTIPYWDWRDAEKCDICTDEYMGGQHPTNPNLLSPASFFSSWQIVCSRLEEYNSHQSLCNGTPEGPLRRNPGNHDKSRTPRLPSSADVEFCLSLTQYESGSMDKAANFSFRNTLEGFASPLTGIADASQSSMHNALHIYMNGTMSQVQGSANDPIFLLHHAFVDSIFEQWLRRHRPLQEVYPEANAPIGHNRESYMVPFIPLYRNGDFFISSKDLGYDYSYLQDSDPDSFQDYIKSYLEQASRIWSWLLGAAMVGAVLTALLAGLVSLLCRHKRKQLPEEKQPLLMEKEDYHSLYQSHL
Method: To examine the direct effect of a drug on the catalytic activity of TYR, in vitro experiments were undertaken. Lysate of B16F10 cells stimulated with α-MSH for 24 h was used as a murine TYR preparation. Human TYR preparation was the lysate of human embryonic kidney 293 cells constitutively expressing human TYR (HEK293-TYR). […] The TYR activity assay mixture (200 μL) consisted of 100 mM sodium phosphate buffer (pH 6.8), TYR preparation (40 μg protein), a drug at various concentrations, 1.0 mM L-tyrosine, and 42 μΜ L-DOPA. For enzyme kinetic study, the concentrations of L-tyrosine plus L-DOPA were varied while their relative ratio was kept the same as the standard assay condition. […] The reactions were also performed in the absence of a TYR preparation to correct for the effects of non-enzymatic reactions. Enzyme activity was calculated as follows: activity (% control) = (C−D)/(A−B) × 100, where A and B are the absorbance changes of the control group with and without enzyme, respectively, while C and D are the absorbance changes of the test group with and without enzyme, respectively.

[3] = test system: B16-F10 murine melanoma cells; experiment: Screening assay for overall melanin synthesis (OD 400 nm) in α-MSH-stimulated cells; assay type: cell-based; conditions: 100 nM α-MSH, 72 h
Method: For the screening assay, B16-F10 cells were plated in 96-well plates (3 × 10^3 cells per well) and cultured for 24 h. The cells were then treated with a test drug at 1.0 μM for 60 min, and subsequently stimulated with 0.1 μM α-MSH for 72 h. Overall melanin synthesis was estimated by measuring the absorbance of each well (cells plus medium, without cell lysis) at 400 nm using a Spectrostar Nano microplate reader (BMG LABTECH GmbH, Ortenberg, Germany).

O=C(NO)c1ccc(CC(=O)N(CCO)c2ccccc2)cc1 [K8, 4-((hydroxyamino)carbonyl)-N-(2-hydroxyethyl)-N-phenyl-benzeneacetamide]
cellular TYR activity [1]: attenuated; also recorded: only partially lowered by 10 µM K8 | DCT mRNA level [2]: not significantly affected | MITF mRNA expression [2]: not significantly affected | TYR mRNA level [2]: not significantly affected | TYRP1 mRNA level [2]: not significantly affected | IC50 (human TYR; HEK293-TYR cell-free extract, L-tyrosine plus L-DOPA): 1100 nM | human TYR inhibitory effect (human TYR; each drug at 1.0 μM, library screening): potent TYR inhibitory effects | relative melanin synthesis (OD 400 nm) ([3]; drug 1.0 μM): markedly inhibited cellular melanin synthesis | melanin synthesis (OD 400) ([3]; drug at varied concentrations): attenuated by both drugs in a dose-dependent manner; also recorded: suppressed almost all melanin synthesis

From article PMC7370187, “Screening of an Epigenetic Drug Library Identifies 4-((hydroxyamino)carbonyl)-N-(2-hydroxyethyl)-N-Phenyl-Benzeneacetamide that Reduces Melanin Synthesis by Inhibiting Tyrosinase Activity Independently of Epigenetic Mechanisms” (International Journal of Molecular Sciences, 2020)
